Values of other authors, collected in article PMC5525545 (Nature, 2017).
Blank lines part the entries; values can stand above or below the compound they belong to.

Key:
[1] = test system: AT2R; conditions: activation of AT2R
[2] = patients with post-herpetic neuralgia
[3] = several neuropathic pain models in rodents
[4] = test system: AngII-induced neuronal excitability

SMILES: CCCCOC(=O)NS(=O)(=O)c1sc(CC(C)C)cc1-c1ccc(Cn2ccnc2)cc1 [Compound 21]
beneficial in vivo effects [1]: inducing pressure natriuresis, lowering blood pressure, conferring acute vaso-relaxation, and exhibiting organ protective effects

SMILES: COc1ccc2c(c1OCc1ccccc1)C[C@@H](C(=O)O)N(C(=O)C(c1ccccc1)c1ccccc1)C2 [EMA401]
efficacy in phase II clinical trials [2]: demonstrated efficacy

oral bioavailability [3]: exhibits oral bioavailability
SMILES: Cc1cc(Cn2cnc3c2C[C@@H](C(=O)O)N(C(=O)C(c2ccccc2)c2ccccc2)C3)ccc1N(C)C [PD123319]
effect on AngII-induced neuronal excitability [4]: blocks AngII-induced neuronal excitability
